Patent US10681909B2, “Herbicidal triazoles” (FMC Corporation, priority 2014, dated 2020)

Legend:
[1] = test system: pigweed; test: Test A postemergence; format: in vivo, Amaranthus retroflexus; details: 0 to 100 scale (0 no effect, 100 complete control), approx. 10 d
Procedure, shortened: (§1)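 Test chemicals, formulated in a surfactant-containing non-phytotoxic solvent mixture, are applied either as a directed soil spray to newly planted seeds or as a postemergence application to plants at the one- to two-leaf stage (2–10 cm). All plants grow in a loam soil and sand blend.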

[2] = test system: oilseed rape; test: Test C postemergence; format: in vivo, Brassica napus
Procedure, shortened: (§2)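 Surfactant-containing, non-phytotoxic solvent formulations of each compound were applied either preemergence to seeds in a loam soil–sand blend or postemergence to plants 2 to 18 cm tall (1- to 4-leaf stage). Postemergence plants were grown in peat moss–vermiculite medium.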

[3] = test system: foxtail, giant; test: Test A postemergence; format: in vivo, Setaria faberii; details: 0 to 100 scale (0 no effect, 100 complete control), approx. 10 d
Procedure, shortened: as §1

[4] = test system: barnyardgrass; test: Test A postemergence; format: in vivo, Echinochloa crus-galli; details: 0 to 100 scale (0 no effect, 100 complete control), approx. 10 d
Procedure, shortened: as §1

[5] = test system: waterhemp; test: Test C postemergence; format: in vivo, Amaranthus rudis
Procedure, shortened: as §2

[6] = test system: wheat; test: Test A postemergence; format: in vivo, Triticum aestivum; details: 0 to 100 scale (0 no effect, 100 complete control), approx. 10 d
Procedure, shortened: as §1

[7] = test system: kochia; test: Test C postemergence; format: in vivo, Kochia scoparia
Procedure, shortened: as §2

[8] = test system: crabgrass, large; test: Test C postemergence; format: in vivo, Digitaria sanguinalis
Procedure, shortened: as §2

[9] = test system: foxtail, giant; test: Test C postemergence; format: in vivo, Setaria faberii
Procedure, shortened: as §2

[10] = test system: ragweed; test: Test C postemergence; format: in vivo, Ambrosia elatior
Procedure, shortened: as §2

[11] = test system: corn; test: Test A postemergence; format: in vivo, Zea mays; details: 0 to 100 scale (0 no effect, 100 complete control), approx. 10 d
Procedure, shortened: as §1

[12] = test system: velvetleaf; test: Test C postemergence; format: in vivo, Abutilon theophrasti
Procedure, shortened: as §2

[13] = test system: ryegrass, Italian; test: Test C postemergence; format: in vivo, Lolium multiflorum
Procedure, shortened: as §2

[14] = test system: barnyardgrass; test: Test B flooded paddy test; format: in vivo, Echinochloa crus-galli; details: 250 g ai/ha, applied to paddy water at 2-leaf stage, visual rating after 13 to 15 d, scale 0 (no effect) to 100 (complete control)
Procedure, shortened: (§3)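 Pots were flooded to 3 cm above the soil at treatment, and compounds were applied directly into the paddy water. That depth was held throughout. After 13 to 15 d in a greenhouse, plants were rated visually against untreated controls.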

[15] = test system: barnyardgrass; test: Test A preemergence; format: in vivo, Echinochloa crus-galli; details: 0 to 100 scale (0 no effect, 100 complete control)
Procedure, shortened: as §1

[16] = test system: barnyardgrass; test: Test C postemergence; format: in vivo, Echinochloa crus-galli
Procedure, shortened: as §2

[17] = test system: morningglory; test: Test C postemergence; format: in vivo, Ipomoea coccinea
Procedure, shortened: as §2

[18] = test system: nutsedge, yellow; test: Test C postemergence; format: in vivo, Cyperus esculentus
Procedure, shortened: as §2

[19] = test system: sedge, umbrella; test: Test B flooded paddy test; format: in vivo, Cyperus difformis; details: 250 g ai/ha, applied to paddy water at 2-leaf stage, visual rating after 13 to 15 d, scale 0 (no effect) to 100 (complete control)
Procedure, shortened: as §3

[20] = test system: ducksalad; test: Test B flooded paddy test; format: in vivo, Heteranthera limosa; details: 250 g ai/ha, applied to paddy water at 2-leaf stage, visual rating after 13 to 15 d, scale 0 (no effect) to 100 (complete control)
Procedure, shortened: as §3

[21] = test system: corn; test: Test C postemergence; format: in vivo, Zea mays
Procedure, shortened: as §2

COc1nc(-c2ccccc2)nn1Cc1ccnc(C(F)(F)F)c1 [Compound 32]
Plant response rating, Pigweed ([1]; 125 g ai/ha): 90 | Plant response rating, Pigweed ([1]; 500 g ai/ha): 100 | Plant response rating (scale of 0 to 100 where 0 is no effect and 100 is complete control) ([2]; Oilsee Rape, 250 g ai/ha): 45 | Plant response rating (scale of 0 to 100 where 0 is no effect and 100 is complete control) ([2]; Oilseed Rape, 31 g ai/ha): 20 | Plant response rating (scale of 0 to 100 where 0 is no effect and 100 is complete control) ([2]; Oilseed Rape, 62 g ai/ha): 5 | Plant response rating (scale of 0 to 100 where 0 is no effect and 100 is complete control) ([2]; Oilseed Rape, 125 g ai/ha): 10 | Plant response rating, Foxtail, Giant ([3]; 125 g ai/ha): 60 | Plant response rating, Foxtail, Giant ([3]; 500 g ai/ha): 90 | Plant response rating, Barnyardgrass ([4]; 125 g ai/ha): 30 | Plant response rating, Barnyardgrass ([4]; 500 g ai/ha): 60 | Plant response rating (scale of 0 to 100 where 0 is no effect and 100 is complete control) ([5]; 31 g ai/ha): 85 | Plant response rating (scale of 0 to 100 where 0 is no effect and 100 is complete control) ([5]; 62 g ai/ha): 90 | Plant response rating (scale of 0 to 100 where 0 is no effect and 100 is complete control) ([5]; 125 g ai/ha): 90 | Plant response rating (scale of 0 to 100 where 0 is no effect and 100 is complete control) ([5]; 250 g ai/ha): 98 | Plant response rating, Wheat ([6]; 125 g ai/ha): 0 | Plant response rating, Wheat ([6]; 500 g ai/ha): 20 | Plant response rating (scale of 0 to 100 where 0 is no effect and 100 is complete control) ([7]; 31 g ai/ha): 80 | Plant response rating (scale of 0 to 100 where 0 is no effect and 100 is complete control) ([7]; 62 g ai/ha): 90 | Plant response rating (scale of 0 to 100 where 0 is no effect and 100 is complete control) ([7]; 125 g ai/ha): 90 | Plant response rating (scale of 0 to 100 where 0 is no effect and 100 is complete control) ([7]; 250 g ai/ha): 90 | Plant response rating (scale of 0 to 100 where 0 is no effect and 100 is complete control) ([8]; 31 g ai/ha): 5 | Plant response rating (scale of 0 to 100 where 0 is no effect and 100 is complete control) ([8]; 62 g ai/ha): 10 | Plant response rating (scale of 0 to 100 where 0 is no effect and 100 is complete control) ([8]; 125 g ai/ha): 25 | Plant response rating (scale of 0 to 100 where 0 is no effect and 100 is complete control) ([8]; 250 g ai/ha): 25 | Plant response rating (scale of 0 to 100 where 0 is no effect and 100 is complete control) ([9]; 31 g ai/ha): 10 | Plant response rating (scale of 0 to 100 where 0 is no effect and 100 is complete control) ([9]; 62 g ai/ha): 10 | Plant response rating (scale of 0 to 100 where 0 is no effect and 100 is complete control) ([9]; 125 g ai/ha): 10 | Plant response rating (scale of 0 to 100 where 0 is no effect and 100 is complete control) ([9]; 250 g ai/ha): 10 | Plant response rating (scale of 0 to 100 where 0 is no effect and 100 is complete control) ([10]; 31 g ai/ha): 35 | Plant response rating (scale of 0 to 100 where 0 is no effect and 100 is complete control) ([10]; 62 g ai/ha): 70 | Plant response rating (scale of 0 to 100 where 0 is no effect and 100 is complete control) ([10]; 125 g ai/ha): 60 | Plant response rating (scale of 0 to 100 where 0 is no effect and 100 is complete control) ([10]; 250 g ai/ha): 60 | Plant response rating, Corn ([11]; 125 g ai/ha): 10 | Plant response rating, Corn ([11]; 500 g ai/ha): 30 | Plant response rating (scale of 0 to 100 where 0 is no effect and 100 is complete control) ([12]; 31 g ai/ha): 15 | Plant response rating (scale of 0 to 100 where 0 is no effect and 100 is complete control) ([12]; 62 g ai/ha): 10 | Plant response rating (scale of 0 to 100 where 0 is no effect and 100 is complete control) ([12]; 125 g ai/ha): 20 | Plant response rating (scale of 0 to 100 where 0 is no effect and 100 is complete control) ([12]; 250 g ai/ha): 20 | Plant response rating (scale of 0 to 100 where 0 is no effect and 100 is complete control) ([13]; 31 g ai/ha): 0 | Plant response rating (scale of 0 to 100 where 0 is no effect and 100 is complete control) ([13]; 62 g ai/ha): 0 | Plant response rating (scale of 0 to 100 where 0 is no effect and 100 is complete control) ([13]; 125 g ai/ha): 0 | Plant response rating (scale of 0 to 100 where 0 is no effect and 100 is complete control) ([13]; 250 g ai/ha): 10 | Plant response rating, Barnyardgrass, Flood [14]: 0 | Plant response rating, Barnyardgrass ([15]; 125 g ai/ha): 20 | Plant response rating, Barnyardgrass ([15]; 500 g ai/ha, approx. 10 d): 80 | Plant response rating (scale of 0 to 100 where 0 is no effect and 100 is complete control) ([16]; 31 g ai/ha): 10 | Plant response rating (scale of 0 to 100 where 0 is no effect and 100 is complete control) ([16]; 62 g ai/ha): 15 | Plant response rating (scale of 0 to 100 where 0 is no effect and 100 is complete control) ([16]; 125 g ai/ha): 20 | Plant response rating (scale of 0 to 100 where 0 is no effect and 100 is complete control) ([16]; 250 g ai/ha): 20 | Plant response rating (scale of 0 to 100 where 0 is no effect and 100 is complete control) ([17]; 31 g ai/ha): 80 | Plant response rating (scale of 0 to 100 where 0 is no effect and 100 is complete control) ([17]; 62 g ai/ha): 40 | Plant response rating (scale of 0 to 100 where 0 is no effect and 100 is complete control) ([17]; 125 g ai/ha): 80 | Plant response rating (scale of 0 to 100 where 0 is no effect and 100 is complete control) ([17]; 250 g ai/ha): 65 | Plant response rating (scale of 0 to 100 where 0 is no effect and 100 is complete control) ([18]; 31 g ai/ha): 10 | Plant response rating (scale of 0 to 100 where 0 is no effect and 100 is complete control) ([18]; 62 g ai/ha): 20 | Plant response rating (scale of 0 to 100 where 0 is no effect and 100 is complete control) ([18]; 125 g ai/ha): 10 | Plant response rating (scale of 0 to 100 where 0 is no effect and 100 is complete control) ([18]; 250 g ai/ha): 25 | Plant response rating, Sedge, Umbrella, Flood [19]: 75 | Plant response rating, Ducksalad, Flood [20]: 30 | Plant response rating (scale of 0 to 100 where 0 is no effect and 100 is complete control) ([21]; 31 g ai/ha): 10 | Plant response rating (scale of 0 to 100 where 0 is no effect and 100 is complete control) ([21]; 62 g ai/ha): 20 | Plant response rating (scale of 0 to 100 where 0 is no effect and 100 is complete control) ([21]; 125 g ai/ha): 25 | Plant response rating (scale of 0 to 100 where 0 is no effect and 100 is complete control) ([21]; 250 g ai/ha): 35
